{"source": "patent US20170368120A1", "about": "“Use of compositions of water/alcohol extracts of Antrodia cinnamomea cut-log wood cultivated fruiting body and solid-state cultivated mycelium as auxiliaries for anti-cancer agents” (Taiwan Leader Biotech Corp, priority 2016, published 2017)", "key": {"[1]": {"system": "blood cells in peripheral blood", "assay": "Complete Blood Count in 5-FU treated mice", "type": "in vivo, C57BL/6 mice", "details": "5-FU alone 200 mg/kg ip, compared to control", "protocol": "(§1) The effect of the A. cinnamomea composition (L) on recovering the blood cell reducing caused by the application of chemotherapy drug 5-FU was evaluated in the colony test of CFU-GM in bone marrow. C57BL/6 mice of eight-week old, purchased from the National Laboratory Animal Center, were used in the test. The tested animal groups included the control, 5-FU, 5FU+L, 5-FU+0.5L, 5-FU+0.25L and 5-FU+Angiotensin II (Aii) groups, with 6 mice in each group. After the intraperitoneal injection of 5-FU (200 mg/kg) at first day, the test drug A. cinnamomea composition (L) was orally administered to the animals, or the positive control drug Angiotensin II (Aii, 100 μg/kg) was intraperitoneally injected to the animals at day 4˜10. Dosages of the A. cinnamomea composition (L) were used as follow: 1× dose of 680 mg/kg, 0.5× dose of 340 mg/kg and 0.25× dose of 170 mg/kg. Whole blood was collected from cheek before sacrificing the animals at day 11, and the Complete Blood Count (CBC) was performed to record the number of blood cells, including white blood cells, red blood cells, lymphocytes and neutrophils in peripheral blood. The femur was removed from the sacrificed mouse at day 11 of the experiment. The bone marrow cells were collected for the cultivation of CFU-GM. Cells was cultured for 7 days, and the number of CFU-GM colonies was counted."}, "[2]": {"system": "CFU-GM in bone marrow", "assay": "CFU-GM colony test in bone marrow of 5-FU treated mice", "type": "in vivo, C57BL/6 mice", "details": "5-FU alone 200 mg/kg ip at first day; marrow at day 11", "protocol": "as §1"}, "[3]": {"system": "MKN45 gastric cancer cells", "assay": "Gastric tumor growth in MKN45 tumor-bearing nude mice", "type": "in vivo", "details": "5-FU injection", "text": "In this example, the effects of the A. cinnamomea composition of solid-state cultivated mycelium water/alcohol extracts and cut-log wood cultivated fruiting body water/alcohol extracts on gastric tumor growth were further evaluated in an animal model. The test A. cinnamomea compositions included 5% FB/95% SC, 10% FB/90% SC, 20% FB/80% SC, and 40% FB/60% SC, respectively. The animal used in the experiment is an immune deficient mouse (nude mice) implanted MKN45 gastric cancer cells. 10 days after the cancer cell implantation, the animals were orally given the tested A. cinnamomea compositions (300 mg/kg/day) by oral gavage for 21 days. The treated animals were scarified. The tumor was isolated and weighted, as the key indicator for assessing the inhibition of tumor growth."}, "[4]": {"system": "Human gastric cancer MKN-45 cells", "assay": "Auxiliary effect on 5-FU in MKN-45 tumor-bearing nude mice", "type": "in vivo, Balb/c nu/nu mice", "details": "5-FU alone 25 mg/kg ip three times a week", "protocol": "In this example, the auxiliary effect of the A. cinnamomea composition on the anti-tumor agent 5-FU was confirmed in an animal model. Balb/c nu/nu mice of six-week old, purchased from the National Laboratory Animal Center, were used in the test. The 5-FU (25 mg/kg, ip) treated group was used as positive group, with drug administration frequency of three times a week. The A. cinnamomea composition (L) of solid-state cultivated mycelium water/alcohol extract and cut-log wood cultivated fruiting body water/alcohol extract was orally administered to mice once a day with following dosages: 1× dose of 680 mg/kg, 0.5× dose of 340 mg/kg, 0.25× dose of 170 mg/kg and 0.125× dose of 85 mg/kg. If the mice had been injected with 5-FU, the L was orally treated four hours after the application of 5-FU. Human gastric cancer MKN-45 cells (3×10^6) were implanted into immune deficient nude mice, and the drug administration was started when the tumor size reached to 100˜200 mm^3. The tested animal groups included the control, 5-FU, 5FU+L, 5-FU+0.5L, 5-FU+0.25L and 5-FU+0.125L groups, with 8 mice in each group."}}}
{"smiles": "O=c1[nH]cc(F)c(=O)[nH]1", "note": "[5-FU, 5-fluorouracil]", "values": [{"measurement": "number of lymphocytes", "setting": "[1]", "result": "significantly reduced"}, {"measurement": "number of neutrophils", "setting": "[1]", "result": "significantly reduced"}, {"measurement": "number of red blood cells", "setting": "[1]", "result": "significantly reduced"}, {"measurement": "number of white blood cells", "setting": "[1]", "result": "significantly reduced"}, {"measurement": "CFU-GM colony number", "setting": "[2]", "result": "1,869 colonies/10^6 marrow cells"}, {"measurement": "tumor weight", "setting": "[3]", "result": "significant decrease in tumor weight"}, {"measurement": "tumor weight", "setting": "[4]", "result": 0.85, "unit": "g"}]}
